{"source": "paper PMC7460063", "about": "“Unique Polyhalogenated Peptides from the Marine Sponge Ircinia sp” (Marine Drugs, 2020)", "key": {"four cancer cell lines [1]": {"system": "four cancer cell lines", "test": "Cytotoxic activity, four cancer cell lines (summary)", "assay_type": "cell-based, human", "conditions": "four cancer cell lines: A-549, HT-29, MDA-MB-231, PSN-1"}, "MDA-MB-231": {"system": "MDA-MB-231", "test": "Cytotoxic activity against breast tumor cell line MDA-MB-231", "assay_type": "cell-based", "conditions": "MDA-MB-231 (breast), human tumor cell line"}, "topoisomerase I": {"system": "topoisomerase I", "test": "Topoisomerase I inhibition", "assay_type": "biochemical"}, "A-549": {"system": "A-549", "test": "Cytotoxic activity against lung tumor cell line A-549", "assay_type": "cell-based", "conditions": "A-549 (lung), human tumor cell line"}, "PSN-1": {"system": "PSN-1", "test": "Cytotoxic activity against pancreas tumor cell line PSN-1", "assay_type": "cell-based", "conditions": "PSN-1 (pancreas), human tumor cell line"}, "HT-29": {"system": "HT-29", "test": "Cytotoxic activity against colon tumor cell line HT-29", "assay_type": "cell-based", "conditions": "HT-29 (colon), human tumor cell line"}, "[2]": {"system": "interaction between the programmed cell death protein PD-1 and its natural ligand PDL1", "test": "Cell-based assay of PD-1/PDL1 interaction", "conditions": "for %Inhibition at 1 × 10^−5 M (PD-1): final readout dependent on the interaction between PD-1 and PDL1; for impairment of PD-1/PDL1 interaction: final readout dependent on the interaction between the two proteins"}, "four cancer cell lines [3]": {"system": "four cancer cell lines", "conditions": "cited for comparison with 1 and 2; cited from earlier work", "experimental": "In summary, two new peptides bearing unprecedented halogenated moieties, haloirciniamide A (1) and seribunamide A (2), were isolated from a marine sponge belonging to the Irnicia genus, which was selected for further studies. The sample was collected around the Thousand Islands (Indonesia) by the Pharmamar expedition team in collaboration with the Research Center for Oceanography, Indonesian Institute of Sciences (RCO-LIPI). The planar structures of the novel compounds were determined by a combination of extensive NMR and HPLC-MS experiments. The absolute configuration was achieved by Marfey’s ..."}}, "note": "Non-standard residues stand in square brackets, D forms with d. Residues, ends and D or L forms follow the SMILES beside them. *: point of attachment. X1 = Cn1c(Br)c(Br)c(Br)c1C(=O)*; NMeL = CN[C@@H](CC(C)C)C(=O)O"}
{"molecule": "CN1C(=O)C[C@H](C(N)=O)NC(=O)[C@@H](O)CNC(=O)[C@H](CNC(=O)c2cc(Br)c(Br)[nH]2)NC(=O)[C@H](CN)NC(=O)C1Cc1cnc(Cl)[nH]1", "note": "(stereo partly drawn) [Compound 1, haloirciniamide A]", "values": [{"measurement": "cytotoxic activity", "setting": "four cancer cell lines [1]", "result": "not observed"}, {"measurement": "GI50", "setting": "MDA-MB-231", "result": "> 12", "unit": "µM"}, {"measurement": "%Inhibition at 1 × 10^−5 M (Top-I)", "setting": "topoisomerase I; 1 × 10^−5 M", "result": 3, "unit": "%"}, {"measurement": "inhibition of topoisomerase I", "setting": "topoisomerase I; 1.0 × 10^−5 M", "result": "no inhibition of the enzyme"}, {"measurement": "GI50", "setting": "A-549", "result": "> 12", "unit": "µM"}, {"measurement": "GI50", "setting": "PSN-1", "result": "> 12", "unit": "µM"}, {"measurement": "GI50", "setting": "HT-29", "result": "> 12", "unit": "µM"}, {"measurement": "%Inhibition at 1 × 10^−5 M (PD-1)", "setting": "[2]", "result": 0.3, "unit": "%"}, {"measurement": "impairment of PD-1/PDL1 interaction", "setting": "[2]", "result": "unable to impair the interaction"}]}
{"molecule": "CC[C@H](C)[C@H](NC(=O)c1c(Br)c(Br)c(Br)n1C)C(=O)N(C)[C@@H](CC(C)C)C(=O)N1CCC[C@H]1C(=O)N[C@@H](CCC(N)=O)C(=O)O", "note": "[Compound 2, seribunamide A] (X1-I[NMeL]PQ-OH)", "values": [{"measurement": "cytotoxic activity", "setting": "four cancer cell lines [1]", "result": "not observed"}, {"measurement": "GI50", "setting": "MDA-MB-231", "result": "> 12", "unit": "µM"}, {"measurement": "GI50", "setting": "A-549", "result": "> 12", "unit": "µM"}, {"measurement": "GI50", "setting": "PSN-1", "result": "> 12", "unit": "µM"}, {"measurement": "GI50", "setting": "HT-29", "result": "> 12", "unit": "µM"}, {"measurement": "%Inhibition at 1 × 10^−5 M (PD-1)", "setting": "[2]", "result": "−3.5", "unit": "%"}, {"measurement": "impairment of PD-1/PDL1 interaction", "setting": "[2]", "result": "unable to impair the interaction"}]}
{"molecule": "cyclocinamide B", "values": [{"measurement": "cytotoxic activity (words, comparison compound cyclocinamide B)", "setting": "four cancer cell lines [3]", "result": "not observed"}]}
{"molecule": "gunungamide A", "values": [{"measurement": "cytotoxic activity (words, comparison compound gunungamide A)", "setting": "four cancer cell lines [3]", "result": "not observed"}]}
